Data reported in PubChem BioAssay AID1963986 (Molecular Pharmacology Branch, DTP, NCI, 2024).
pIC50: −log10 of the molar value. Values belong to the compound of their own block, whether it stands above or below them.

Tested on: 171881-019-R-J1-PDC tumor spheroid viability
Experiment: Anticancer human tumor 171881-019-R-J1-PDC patient-derived invasive breast carcinoma cell line growth inhibition [PI3K]
Conditions: spheroids with HUVEC and MSC; for pIC50: curve of first compound; for viability, T/C: stronger effect = lower value
How it was run: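 Agents were dosed from a top concentration near clinical Cmax (otherwise 10 microM) in half-log decrements, alone or combined with PI3K inhibitors. The spheroids contain tumor cells plus endothelial (HUVEC) and MSC stroma; viability is measured.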

[1] = second compound 0.0316 µM, first compound 0.0316 µM
[2] = second compound 0.0316 µM, first compound 0.1 µM
[3] = second compound 0.0316 µM, first compound 0.316 µM
[4] = second compound 0.0316 µM, first compound 1 µM
[5] = second compound 0.0316 µM, first compound 3.16 µM
[6] = second compound 0.0316 µM, first compound 10 µM
[7] = second compound 0.1 µM, first compound 0.0316 µM
[8] = second compound 0.1 µM, first compound 0.1 µM
[9] = second compound 0.1 µM, first compound 0.316 µM
[10] = second compound 0.1 µM, first compound 1 µM
[11] = second compound 0.1 µM, first compound 3.16 µM
[12] = second compound 0.1 µM, first compound 10 µM
[13] = second compound 0.316 µM, first compound 0.0316 µM
[14] = second compound 0.316 µM, first compound 0.1 µM
[15] = second compound 0.316 µM, first compound 0.316 µM
[16] = second compound 0.316 µM, first compound 1 µM
[17] = second compound 0.316 µM, first compound 3.16 µM
[18] = second compound 0.316 µM, first compound 10 µM
[19] = second compound 1 µM, first compound 0.0316 µM
[20] = second compound 1 µM, first compound 0.1 µM
[21] = second compound 1 µM, first compound 0.316 µM
[22] = second compound 1 µM, first compound 1 µM
[23] = second compound 1 µM, first compound 3.16 µM
[24] = second compound 1 µM, first compound 10 µM
[25] = second compound 3.16 µM, first compound 0.0316 µM
[26] = second compound 3.16 µM, first compound 0.1 µM
[27] = second compound 3.16 µM, first compound 0.316 µM
[28] = second compound 3.16 µM, first compound 1 µM
[29] = second compound 3.16 µM, first compound 3.16 µM
[30] = second compound 3.16 µM, first compound 10 µM
[31] = second compound 10 µM, first compound 0.0316 µM
[32] = second compound 10 µM, first compound 0.1 µM
[33] = second compound 10 µM, first compound 0.316 µM
[34] = second compound 10 µM, first compound 1 µM
[35] = second compound 10 µM, first compound 3.16 µM
[36] = second compound 10 µM, first compound 10 µM
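Note: spheroids exposed to compound for 7 days before viability read.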
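Throughout, for viability, T/C: 100% = DMSO vehicle-treated spheroids.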

pIC50 (second compound 0.00316 µM): < 5.00
pIC50 (second compound 0.01 µM): 5.97
pIC50 (second compound 0.0316 µM): > 7.50
pIC50 (second compound 0.1 µM): > 7.50
pIC50 (second compound 0.316 µM): > 7.50
pIC50 (second compound 1 µM): > 7.50
Structure (SMILES): CC1(C)CCC(CN2CCN(c3ccc(C(=O)NS(=O)(=O)c4ccc(NCC5CCOCC5)c([N+](=O)[O-])c4)c(Oc4cnc5[nH]ccc5c4)c3)CC2)=C(c2ccc(Cl)cc2)C1 + COc1c(OCCCN2CCOCC2)ccc2c3n(c(=NC(=O)c4cnc(N)nc4)nc12)CCN3
viability, T/C (second compound 0.00316 µM, first compound 0.0316 µM): 67.9%
viability, T/C (second compound 0.00316 µM, first compound 0.1 µM): 71.5%
viability, T/C (second compound 0.00316 µM, first compound 0.316 µM): 76.5%
viability, T/C (second compound 0.00316 µM, first compound 1 µM): 75.8%
viability, T/C (second compound 0.00316 µM, first compound 3.16 µM): 50.7%
viability, T/C (second compound 0.00316 µM, first compound 10 µM): 56.9%
viability, T/C (second compound 0.01 µM, first compound 0.0316 µM): 50.3%
viability, T/C (second compound 0.01 µM, first compound 0.1 µM): 54.2%
viability, T/C (second compound 0.01 µM, first compound 0.316 µM): 52.1%
viability, T/C (second compound 0.01 µM, first compound 1 µM): 50.6%
viability, T/C (second compound 0.01 µM, first compound 3.16 µM): 36.4%
viability, T/C (second compound 0.01 µM, first compound 10 µM): 46.5%
viability, T/C [1]: 31.2%
viability, T/C [2]: 27.1%
viability, T/C [3]: 26.7%
viability, T/C [4]: 31.9%
viability, T/C [5]: 27.6%
viability, T/C [6]: 27.7%
viability, T/C [7]: 9.62%
viability, T/C [8]: 8.56%
viability, T/C [9]: 8.91%
viability, T/C [10]: 8.46%
viability, T/C [11]: 8.91%
viability, T/C [12]: 7.62%
viability, T/C [13]: 2.51%
viability, T/C [14]: 1.88%
viability, T/C [15]: 2.5%
viability, T/C [16]: 2.1%
viability, T/C [17]: 1.72%
viability, T/C [18]: 1.63%
viability, T/C [19]: 1.35%
viability, T/C [20]: 0.89%
viability, T/C [21]: 1.13%
viability, T/C [22]: 0.95%
viability, T/C [23]: 1.02%
viability, T/C [24]: 0.92%

pIC50 (second compound 0.0316 µM): 6.26
pIC50 (second compound 0.1 µM): 6.33
pIC50 (second compound 0.316 µM): 6.33
pIC50 (second compound 1 µM): 6.46
pIC50 (second compound 3.16 µM): 6.77
pIC50 (second compound 10 µM): 7.45
Structure (SMILES): Cn1nccc1Nc1nccc(-c2ccn(C(CO)c3ccc(Cl)c(F)c3)c(=O)c2)n1 (stereo not drawn) + CC(Nc1ncnc2nc[nH]c12)c1cc2cccc(Cl)c2c(=O)n1-c1ccccc1
viability, T/C [1]: 94%
viability, T/C [2]: 84%
viability, T/C [3]: 62.2%
viability, T/C [4]: 36.6%
viability, T/C [5]: 24%
viability, T/C [6]: 20.7%
viability, T/C [7]: 91.1%
viability, T/C [8]: 88.1%
viability, T/C [9]: 54.7%
viability, T/C [10]: 37.1%
viability, T/C [11]: 23.6%
viability, T/C [12]: 19.9%
viability, T/C [13]: 104%
viability, T/C [14]: 89.6%
viability, T/C [15]: 56.9%
viability, T/C [16]: 35.1%
viability, T/C [17]: 23.1%
viability, T/C [18]: 18.5%
viability, T/C [19]: 98.4%
viability, T/C [20]: 77.4%
viability, T/C [21]: 51.4%
viability, T/C [22]: 31.3%
viability, T/C [23]: 21.3%
viability, T/C [24]: 15.7%
viability, T/C [25]: 79.3%
viability, T/C [26]: 61.2%
viability, T/C [27]: 36%
viability, T/C [28]: 21.8%
viability, T/C [29]: 14.9%
viability, T/C [30]: 13%
viability, T/C [31]: 51.3%
viability, T/C [32]: 39.2%
viability, T/C [33]: 27.9%
viability, T/C [34]: 15%
viability, T/C [35]: 10.6%
viability, T/C [36]: 6.93%

pIC50 (second compound 0.0316 µM): < 5.00
pIC50 (second compound 0.1 µM): < 5.00
pIC50 (second compound 0.316 µM): < 5.00
pIC50 (second compound 1 µM): < 5.00
pIC50 (second compound 3.16 µM): < 5.00
pIC50 (second compound 10 µM): 5.29
Structure (SMILES): CC(Cn1ccc(-c2ccc(C#N)c(Cl)c2)n1)NC(=O)c1cc(C(C)O)[nH]n1 (stereo not drawn) + CC(Nc1ncnc2nc[nH]c12)c1cc2cccc(Cl)c2c(=O)n1-c1ccccc1
viability, T/C [1]: 85.5%
viability, T/C [2]: 85%
viability, T/C [3]: 93%
viability, T/C [4]: 70.3%
viability, T/C [5]: 68.9%
viability, T/C [6]: 59.1%
viability, T/C [7]: 80.6%
viability, T/C [8]: 105%
viability, T/C [9]: 87.8%
viability, T/C [10]: 77.6%
viability, T/C [11]: 81%
viability, T/C [12]: 62.1%
viability, T/C [13]: 96.3%
viability, T/C [14]: 94.9%
viability, T/C [15]: 88.5%
viability, T/C [16]: 91.2%
viability, T/C [17]: 82%
viability, T/C [18]: 66.7%
viability, T/C [19]: 104%
viability, T/C [20]: 93.8%
viability, T/C [21]: 87.8%
viability, T/C [22]: 94.9%
viability, T/C [23]: 92%
viability, T/C [24]: 64.7%
viability, T/C [25]: 86.7%
viability, T/C [26]: 93.4%
viability, T/C [27]: 83.6%
viability, T/C [28]: 82.8%
viability, T/C [29]: 85%
viability, T/C [30]: 58.9%
viability, T/C [31]: 60.3%
viability, T/C [32]: 59.5%
viability, T/C [33]: 55.9%
viability, T/C [34]: 56.2%
viability, T/C [35]: 57.4%
viability, T/C [36]: 40.1%

pIC50 (second compound 0.0316 µM): < 5.00
pIC50 (second compound 0.1 µM): < 5.00
pIC50 (second compound 0.316 µM): < 5.00
pIC50 (second compound 1 µM): < 5.00
pIC50 (second compound 3.16 µM): < 5.00
pIC50 (second compound 10 µM): 5.31
Structure (SMILES): CNC(=O)c1ccc(N2C(=S)N(c3ccc(C#N)c(C(F)(F)F)c3)C(=O)C2(C)C)cc1F + CC(Nc1ncnc2nc[nH]c12)c1cc2cccc(Cl)c2c(=O)n1-c1ccccc1
viability, T/C [1]: 91.6%
viability, T/C [2]: 78.6%
viability, T/C [3]: 80.1%
viability, T/C [4]: 86.4%
viability, T/C [5]: 86.1%
viability, T/C [6]: 71.2%
viability, T/C [7]: 88.8%
viability, T/C [8]: 85.9%
viability, T/C [9]: 78.5%
viability, T/C [10]: 85.6%
viability, T/C [11]: 83.3%
viability, T/C [12]: 69.8%
viability, T/C [13]: 92.1%
viability, T/C [14]: 93.3%
viability, T/C [15]: 85.3%
viability, T/C [16]: 92.4%
viability, T/C [17]: 77%
viability, T/C [18]: 69.9%
viability, T/C [19]: 89.9%
viability, T/C [20]: 100%
viability, T/C [21]: 85.2%
viability, T/C [22]: 86.9%
viability, T/C [23]: 93.1%
viability, T/C [24]: 70.7%
viability, T/C [25]: 87.2%
viability, T/C [26]: 85.9%
viability, T/C [27]: 83.7%
viability, T/C [28]: 80.1%
viability, T/C [29]: 80.9%
viability, T/C [30]: 64.5%
viability, T/C [31]: 61.4%
viability, T/C [32]: 58.2%
viability, T/C [33]: 60.4%
viability, T/C [34]: 57.2%
viability, T/C [35]: 54%
viability, T/C [36]: 43.7%
